# Test results reported in US11851642B2, “Test device” (HITACHI HIGH-TECH CORPORATION, priority 2015, dated 2023).
# Where “and” joins values, the source holds several entries; their conditions need not be identical. Equal values may be shown once.
# Tests used:
# Type in all cases: cell-based
# [1] = system: E coli separated from a patient A; assay: antimicrobial susceptibility testing by microscopic observation, areas of the bacteria
# Description: (§1) In addition, when an examination is performed by using the bacteriological testing instrument 1, culture is performed by mixing a bacterial suspension prepared from a specimen with a culture fluid in the culture plate (for example, a culture plate which has 96 wells in total is used) 18. In order to perform the antimicrobial susceptibility testing, antimicrobial agents different from each other are set so as to be respectively contained in the culture fluids in each of the wells in particular concentrations. An order of the culturing is as follows. First, the bacterial suspension is introduced into the culture plate 18. Then, the bacterial suspension is in a state of being mixed with the culture fluid which is included in each of the wells, and the temperature controller 16 is set to a temperature of approximately 35° C. Furthermore, culture is performed by performing incubation such that the temperature of each of the wells in the culture plate 18 reaches the set temperature. Then, in the bacteriological testing instrument 1, while performing the incubation, the bacteria included in each of the wells can be monitored through the microscopic observation optical system. The microscopic observation may be performed for a set period of time from the start of the incubation till the end thereof by continuously monitoring the state of bacterial proliferation. In addition, the monitoring may be performed at the set time after setting appropriate time, and the monitoring result can be compared with the monitoring result when the incubation is started. In addition, similar to the bacteriological testing instrument in the related art, the turbidity of each of the wells may be measured through the turbidity measurement optical system while incubating the culture plate 18. The measured result may be compared with the monitored result of the microscopic observation optical system.
# (§2) The processor determines whether the bacteria proliferate or the proliferation is interrupted under the corresponding culture condition, based on the microscopic image to which the above-described necessary treatments are performed. The determination whether or not the proliferation is performed, is performed by comparing with the information obtained based on the images at different times in the same container. More specifically, based on the image after the treatment illustrated in FIGS. 4 to 6, for example, the areas of the bacteria are calculated, and it is determined whether or not the proliferation is performed by creating the graph as illustrated in FIG. 12.
# (§3) The processor combines the information on whether or not the proliferation is performed under the culture condition with a combination of a certain concentration of the antimicrobial agent, and determines the minimum concentration of the antimicrobial agent (MIC, minimum inhibitory concentration) which becomes interruption of proliferation. Here, the MIC determination is performed with respect to all of the wells provided on the culture plate 21. For example, there are 96 wells on the culture plate 21, and various types of antimicrobial agents having different concentrations (for example, 0 μg/mL, 0.5 μg/mL, 1 μg/mL, 2.0 μg/mL, 4.0 μg/mL, 8.0 μg/mL, 16.0 μg/mL, . . . ) enter the wells. Therefore, the minimum concentration (MIC) of the antimicrobial agent which becomes interruption of proliferation can be ascertained.
# (§4) The processor further determines whether the bacteria of the examination target is sensitive (S), resistant (R), and intermediate (I) with respect to the corresponding antimicrobial agent by comparing with a break point (a break point of Clinical and Laboratory Standards Institute (CLSI), a break point of Japanese Society of Chemotherapy, or a break point of EUCAST) which is stored as reference data. […]
# [2] = system: E coli separated from a patient B; assay: as above
# Description: as §1, §2, §3, §4
# [3] = system: E coli (ATCC25922); assay: antimicrobial susceptibility testing by microscopic observation (binarized images); details: ampicillin 2 μg/mL in culture fluid; 180 minutes from the start of culture (FIG. 5(b))
# Description: as §1, with “C. […]” for “C. Furthermore, culture is performed by performing incubation such that the temperature of each of the wells in the culture plate 18 reaches the set temperature.”, “system. […]” for “system. The microscopic observation may be performed for a set period of time from the start of the incubation till the end thereof by continuously monitoring the state of bacterial proliferation. In addition, the monitoring may be performed at the set time after setting appropriate time, and the monitoring result can be compared with the monitoring result when the incubation is started.”, “system. […]” for “system.”
# [4] = system: Staphylococcus aureus separated from the patient B; assay: antimicrobial susceptibility testing by microscopic observation, areas of the bacteria; details: for antimicrobial susceptibility determination (comparison with the break points): FIG. 20(b)
# Text: as §1, with “In” for “In addition, when an examination is performed by using the bacteriological testing instrument 1, culture is performed by mixing a bacterial suspension prepared from a specimen with a culture fluid in the culture plate (for example, a culture plate which has 96 wells in total is used) 18. In”
# as §2
# as §3, with “wells.” for “wells. Therefore, the minimum concentration (MIC) of the antimicrobial agent which becomes interruption of proliferation can be ascertained.”
# [5] = system: Staphylococcus aureus separated from the patient A; assay: as above; details: for antimicrobial susceptibility determination (comparison with the break points): FIG. 20(a)
# Text: as §1, with “In” for “In addition, when an examination is performed by using the bacteriological testing instrument 1, culture is performed by mixing a bacterial suspension prepared from a specimen with a culture fluid in the culture plate (for example, a culture plate which has 96 wells in total is used) 18. In”
# as §2
# as §3, with “wells.” for “wells. Therefore, the minimum concentration (MIC) of the antimicrobial agent which becomes interruption of proliferation can be ascertained.”
# [6] = system: Enterococcus faecalis (ATCC29212); assay: as above; parameters: key: Waiting is determined, and “W” is displayed; Growth is determined, and “G” is displayed; Inhibit is determined, and “I” is displayed
# Description: as §1, with “The microscopic observation may be performed for a set period of time from the start of the incubation till the end thereof by continuously monitoring the state of bacterial proliferation. In addition, the monitoring may be performed at the set time after setting appropriate time, and the monitoring result can be compared with the monitoring result when the incubation is started.” left out
# as §2, with “The determination whether or not the proliferation is performed, is performed by comparing with the information obtained based on the images at different times in the same container.” left out, “12. […]” for “12.”
# [7] = system: Pseudomonas aeruginosa; assay: antimicrobial susceptibility testing by microscopic observation, circularity of the bacteria
# Description: as §1
# FIG. 22 is a view (graph) illustrating a result obtained by antimicrobial susceptibility testing with respect to meropenem of Pseudomonas aeruginosa. The graph acquires the circularity of the Pseudomonas aeruginosa in the image measured through the microscopic observation, and illustrates the time-dependent change thereof. The plurality of Pseudomonas aeruginosa are observed in one image, but the circularity of each of the Pseudomonas aeruginosa is acquired, and the value obtained by calculating an average value of the bacteria in the image is plotted. In addition, the circularity is a value calculated by 4π×(area)/(perimeter length)^2. When the bacteria have a completely circular shape, 4π×πr^2/(2πr) ^2=1 is satisfied, and when the bacteria is deviated from a completely circular shape, the perimeter length increases, and thus, the circularity value decreases.
# In the graph, in a case where there is no the antimicrobial agent to be plotted by a “rhomboidal (diamond) shape”, the circularity of the Pseudomonas aeruginosa was hardly changed from the start of culture. […] In addition, when the concentration of meropenem of which the decrease in circularity is stopped is 0.5 μg/mL or greater, it is determined that the Pseudomonas aeruginosa becomes extinct. In a case where the bacteria are not extinct, the shape of the bacteria changes. […] The exemplary embodiment is an example in which the time-dependent change of the circularity of the bacteria is plotted instead of plotting the time-dependent change of the areas of the bacteria. However, in this manner, by plotting the time-dependent change of the feature values that become an index for indicating a degree of proliferation or growth of the bacteria in addition to the bacterial numbers or the areas of the bacteria, not only the minimum inhibitory concentration (MIC) of the bacteria but also the minimum bactericidal concentration (MBC) can be determined.
smiles,measurement,setting,value
CC1(C)S[C@@H]2[C@H](NC(=O)[C@H](N)c3ccccc3)C(=O)N2[C@H]1C(=O)O [ampicillin],sensitivity determination (comparison with the break points),[1]; FIG. 17(a),durability
same,proliferation determination result (MIC determination result),[1]; all ampicillin conditions (FIG. 16(a)),determined to proliferate
same,time-dependent change of the areas of the bacteria (standardized by the areas at start of culture),"[1]; ampicillin 512 μg/mL, compared to no antimicrobial agent (FIG. 15(a))",slightly increases
same,concentration at which the proliferation is interrupted (MIC determination result),[2]; after 180 minutes from the start of culture (FIG. 16(b)),≥ 8 µg/mL
same,time-dependent change of the areas of the bacteria (standardized by the areas at start of culture),[2]; ampicillin 4 μg/mL (FIG. 15(b)),increase tends to be stopped
same,time-dependent change of the areas of the bacteria (standardized by the areas at start of culture),[2]; ampicillin 8 μg/mL or greater (FIG. 15(b)),area tends to decrease
same,state of the bacteria in the microscopic observation image,[3],elongated
same,antimicrobial susceptibility determination (comparison with the break points),[4],Intermediate
same,antimicrobial susceptibility determination (comparison with the break points),[5],resistance
C[C@H]1COc2c(N3CCN(C)CC3)c(F)cc3c(=O)c(C(=O)O)cn1c23 [levofloxacin],proliferation determination result,"[6]; levofloxacin 0.5 μg/mL, after 120 minutes (FIG. 13)",G
same,proliferation determination result,"[6]; levofloxacin 1.0 μg/mL, after 150 minutes (FIG. 13)",I
same,proliferation determination result,"[6]; levofloxacin 2.0 μg/mL, after 150 minutes (FIG. 13)",I
C[C@@H](O)[C@H]1C(=O)N2C(C(=O)O)=C(S[C@@H]3CN[C@H](C(=O)N(C)C)C3)[C@H](C)[C@H]12 [meropenem],concentration at which the circularity continues to decrease: bacteria elongated but not become extinct yet,[7]; FIG. 22,0.125 µg/mL and 0.25 µg/mL
same,concentration at which the decrease in circularity is stopped: bacteria become extinct (can be estimated as MBC),[7]; FIG. 22,≥ 0.5 µg/mL
same,time from the start of culture after which the circularity starts to decrease,"[7]; meropenem 0.25 μg/mL, bacteria elongated (FIG. 22)",90 min
same,time-dependent change of the circularity,[7]; meropenem 0.5 μg/mL (FIG. 22),slightly decreases
same,time-dependent change of the circularity,[7]; meropenem 1.0 μg/mL (FIG. 22),slightly decreases
same,time-dependent change of the circularity,[7]; meropenem 2.0 μg/mL (FIG. 22),slightly decreases
CN[C@H](CC(C)C)C(=O)N[C@H]1C(=O)N[C@@H](CC(N)=O)C(=O)N[C@H]2C(=O)N[C@H]3C(=O)N[C@H](C(=O)N[C@H](C(=O)O)c4cc(O)cc(O)c4-c4cc3ccc4O)[C@H](O)c3ccc(c(Cl)c3)Oc3cc2cc(c3O[C@@H]2O[C@H](CO)[C@@H](O)[C@H](O)[C@H]2O[C@H]2C[C@](C)(N)[C@H](O)[C@H](C)O2)Oc2ccc(cc2Cl)[C@H]1O [vancomycin],antimicrobial susceptibility determination (comparison with the break points),[4],Intermediate
same,concentration at which the proliferation is performed,"[4]; images within 300 minutes from the start of culture (FIG. 18, FIG. 19(b))",≤ 0.5 µg/mL
same,antimicrobial susceptibility determination (comparison with the break points),[5],sensitivity
same,concentration at which the proliferation is performed,"[5]; images within 300 minutes from the start of culture (FIG. 18, FIG. 19(a))",0.25 µg/mL
